In ChEMBL document CHEMBL3046955, “Antiviral effects of three novel derivatives of adefovir on the replication of hepatitis B virus” (Med Chem Res, 2012):
Active and inactive are the calls of the source. No cut-off for these calls is given here.

Legend:
Duck hepatitis B virus [1] = assay: Antiviral activity against Duck hepatitis B virus (DHBV) infected duck assessed as reduction in viral DNA level at 2 to 50 mg/kg, po for 30 days measured on day 15 post termination of treatment by RT-PCR analysis; format: functional, organism-based
Duck hepatitis B virus [2] = assay: Antiviral activity against Duck hepatitis B virus (DHBV) infected duck assessed as reduced inflammation in liver at 2 to 50 mg/kg, po for 30 days; format: functional, organism-based
Duck hepatitis B virus [3] = assay: Antiviral activity against Duck hepatitis B virus (DHBV) infected duck assessed as liver weight at 2 mg/kg, po for 30 days (reference value: 1.25 g); format: functional
HepG2 [4] = assay: Cytotoxicity against Homo sapiens (human) HepG2 cells at <1000 uM after 72 hr by MTT assay; format: cell-based; conditions: hepg2, 72 h
Duck hepatitis B virus [5] = assay: Antiviral activity against Duck hepatitis B virus (DHBV) infected duck assessed as liver weight at 50 mg/kg, po for 30 days (reference value: 1.25 g); format: functional
Duck hepatitis B virus [6] = assay: Antiviral activity against Duck hepatitis B virus (DHBV) infected duck assessed as reduction in viral DNA level at 2 to 50 mg/kg, po for 30 days measured on day 30 by RT-PCR analysis; format: functional, organism-based
Duck hepatitis B virus [7] = assay: Antiviral activity against Duck hepatitis B virus (DHBV) infected duck assessed as viral DNA level at 2 to 50 mg/kg, po for 30 days measured on day 15 post initial treatment by RT-PCR analysis; format: functional, organism-based
Duck hepatitis B virus [8] = assay: Antiviral activity against Duck hepatitis B virus (DHBV) infected duck assessed as liver weight at 10 mg/kg, po for 30 days (reference value: 1.25 g); format: functional
Duck hepatitis B virus [9] = assay: Antiviral activity against Duck hepatitis B virus (DHBV) infected duck assessed as reduction in viral DNA level at 2 to 50 mg/kg, po for 30 days measured on day 15 post initial treatment by RT-PCR analysis; format: functional, organism-based
HepG2 [10] = assay: Cytotoxicity against Homo sapiens (human) HepG2 assessed as mitochondrial DNA level at 0.1 to 10 umol for 8 days by dot blot assay; format: cell-based; conditions: hepg2, 192 h
Duck hepatitis B virus [11] = assay: Antiviral activity against Duck hepatitis B virus (DHBV) infected po dosed duck assessed as reduction in viral DNA level administered for 30 days measured on day 15 post initial treatment by RT-PCR analysis; format: functional, organism-based
Duck hepatitis B virus [12] = assay: Antiviral activity against Duck hepatitis B virus (DHBV) infected po dosed duck assessed as reduction in viral DNA level administered for 30 days measured on day 15 post termination of treatment by RT-PCR analysis; format: functional, organism-based
Duck hepatitis B virus [13] = assay: Antiviral activity against Duck hepatitis B virus (DHBV) infected po dosed duck assessed as reduction in viral DNA level administered for 30 days measured on day 30 by RT-PCR analysis; format: functional, organism-based
Duck hepatitis B virus [14] = assay: Antiviral activity against Duck hepatitis B virus (DHBV) infected duck assessed as reduction in viral DNA level at 10 mg/kg, po for 30 days measured on day 15 post termination of treatment by RT-PCR analysis; format: functional, organism-based; design: dose 10 mg/kg
Duck hepatitis B virus [15] = assay: Antiviral activity against Duck hepatitis B virus (DHBV) infected duck assessed as reduction in viral DNA level at 10 mg/kg, po for 30 days measured on day 30 by RT-PCR analysis; format: functional, organism-based; design: dose 10 mg/kg
Duck hepatitis B virus [16] = assay: Antiviral activity against Duck hepatitis B virus (DHBV) infected duck assessed as viral DNA level at 10 mg/kg, po for 30 days measured on day 15 post initial treatment by RT-PCR analysis; format: functional, organism-based; design: dose 10 mg/kg
Duck hepatitis B virus [17] = assay: Antiviral activity against Duck hepatitis B virus (DHBV) infected duck assessed as reduced inflammation in liver at 10 mg/kg, po for 30 days; format: functional, organism-based; design: dose 10 mg/kg
HepG2 [18] = assay: Cytotoxicity against Homo sapiens (human) HepG2 assessed as mitochondrial DNA level for 8 days by dot blot assay; format: cell-based; conditions: hepg2, 192 h

| SMILES | inhibition (Duck hepatitis B virus [1]) | inhibition (Duck hepatitis B virus [2]) | Activity (Duck hepatitis B virus [3]) [g] | Activity (HepG2 [4]) | Activity (Duck hepatitis B virus [5]) [g] | inhibition (Duck hepatitis B virus [6]) | Activity (Duck hepatitis B virus [7]) | Activity (Duck hepatitis B virus [8]) [g] | inhibition (Duck hepatitis B virus [9]) | Activity (HepG2 [10]) | inhibition (Duck hepatitis B virus [11]) | inhibition (Duck hepatitis B virus [12]) | inhibition (Duck hepatitis B virus [13]) | inhibition (Duck hepatitis B virus [14]) | inhibition (Duck hepatitis B virus [15]) | Activity (Duck hepatitis B virus [16]) | inhibition (Duck hepatitis B virus [17]) | Activity (HepG2 [18]) |
| --- | --- | --- | --- | --- | --- | --- | --- | --- | --- | --- | --- | --- | --- | --- | --- | --- | --- | --- |
| CC(Cn1cnc2c(Sc3ccc4c(c3)CCO4)nc(N)nc21)OCP(=O)(OCC(F)(F)F)OCC(F)(F)F (stereo unspecified) | Active | Active | 0.9 | Non-toxic | 0.95 | Active | inactive | 0.75 | Active | Non-toxic | – | – | – | – | – | – | – | – |
| CSc1ccc(Sc2nc(N)nc3c2ncn3CCOCP(=O)(OCC(F)(F)F)OCC(F)(F)F)cc1 | – | Active | 0.8 | Non-toxic | 0.55 | – | – | 0.75 | – | Non-toxic | Dose-dependent effect | Dose-dependent effect | Dose-dependent effect | – | – | – | – | – |
| CC(C)(C)C(=O)OCOP(=O)(COCCn1cnc2c(N)ncnc21)OCOC(=O)C(C)(C)C [ADEFOVIR DIPIVOXIL] | – | – | – | Non-toxic | – | – | – | 0.8 | – | – | – | – | – | Active | Active | inactive | Active | – |
| Nc1ccn([C@H]2CC[C@@H](CO)O2)c(=O)n1 [ZALCITABINE] | – | – | – | – | – | – | – | – | – | Toxic | – | – | – | – | – | – | – | Dose-dependent effect |
| COc1ccc(Sc2nc(N)nc3c2ncn3CCOCP(=O)(OCC(F)(F)F)OCC(F)(F)F)cc1F | Active | Active | 0.8 | Non-toxic | 0.85 | Active | – | 0.8 | Active | Non-toxic | – | – | – | – | – | – | – | – |
